pIC50: −log10 of the molar value. Where two headings read alike, the source gives them in different places.
How the values were obtained:
GABAAR [1] = settings: 3H-flunitrazepam, rat brain extract; for pIC50: read-out: GABAAR binding IC50
in vitro = settings: PAMPA, pH 7.4
female A/J mice = assay: Methacholine-induced airway hyperresponsiveness, double chamber plethysmograph; assay type: in vivo, mouse; settings: nebulized 7.2 mg/kg, then five nebulized methacholine challenges, vs vehicle
[2] = test system: guinea pig airway smooth muscle; assay: Ex vivo airway smooth muscle relaxation, substance P-contracted tracheal rings; settings: 25 μM, vs vehicle
GABAAR [3] = settings: read-out: GABAAR binding IC50; reported earlier; cited from earlier work
[4] = Microsomal stability phase 1; assay type: in vitro ADME; settings: human liver S9, NADPH, 10 μM compound
[5] = cited from earlier work
[6] = test system: female Swiss Webster mice; settings: oral dosing up to 1000 mg/kg; cited from earlier work
[7] = Metabolic stability phase 2; assay type: in vitro ADME; settings: mouse liver S9, UDP-glucuronic acid, 10 μM compound
[8] = Metabolic stability phase 2; assay type: in vitro ADME; settings: human liver S9, UDP-glucuronic acid, 10 μM compound
[9] = Microsomal stability phase 1; assay type: in vitro ADME; settings: mouse liver S9, NADPH, 10 μM compound
[10] = test system: female Swiss Webster mice; assay: Rotarod sensorimotor inhibition; assay type: in vivo, mouse; settings: diazepam 8 mg/kg

Row | SMILES | pIC50 (GABAAR [1]) | Papp (in vitro) [×10⁻⁶ cm/s] | GABAAR binding (in words) (GABAAR [1]) | further results
1 | CC1(C)N=C(c2ccccc2F)c2cc(Br)ccc2NC1=O [3a, 7-Bromo-5-(2-fluorophenyl)-3,3-dimethyl-1,3-dihydro-2H-benzo[e][1,4]diazepin-2-one] | 5.90 | – | – | –
2 | O=C1Nc2ccc(Br)cc2C(c2ccccc2F)=NC12CC2 [3c] | 7.38 | – | – | –
3 | O=C1Nc2ccc(Br)cc2C(c2ccccc2F)=NC12CCC2 [3d] | 5.69 | 3.16 | – | –
4 | O=C1Nc2ccc(Br)cc2C(c2ccccc2F)=NC12CCCC2 [3e] | – | 0.158 | no significant binding | –
5 | O=C1Nc2ccc(Br)cc2C(c2ccccc2F)=NC12CCCCC2 [3f] | – | 0.0794 | no significant binding | –
6 | O=C1Nc2ccc(Cl)cc2C(c2ccccc2F)=NC12CC2 [3g] | 6.18 | – | – | –
7 | CCOC(=O)c1ncn2c1C(C)(C)N=C(c1ccccc1F)c1cc(Br)ccc1-2 [4a] | 6.13 | – | Some activity was retained | –
8 | CCOC(=O)c1ncn2c1C1(CC1)N=C(c1ccccc1F)c1cc(Br)ccc1-2 [4c, Ethyl 8-bromo-6-(2-fluorophenyl)spiro[benzo[f]imidazo[1,5-α][1,4]diazepine-4,1′-cyclopropane]-3-carboxylate] | 7.06 | – | – | –
9 | CCOC(=O)c1ncn2c1C1(CCC1)N=C(c1ccccc1F)c1cc(Br)ccc1-2 [4d] | 6.07 | 6.31 | Some activity was retained | –
10 | CCOC(=O)c1ncn2c1C1(CCCC1)N=C(c1ccccc1F)c1cc(Br)ccc1-2 [4e] | – | 1.58 | not active | –
11 | CCOC(=O)c1ncn2c1C1(CCCCC1)N=C(c1ccccc1F)c1cc(Br)ccc1-2 [4f] | 5.21 | 1 | not active | –
12 | CCOC(=O)c1ncn2c1C1(CC1)N=C(c1ccccc1F)c1cc(Cl)ccc1-2 [4g] | – | 2.51 | weak GABAAR ligands | –
13 | CCOC(=O)c1ncn2c1C1(CC1)N=C(c1ccccc1F)c1cc(C3CC3)ccc1-2 [4i, Ethyl 8-Cyclopropyl-6-(2-fluorophenyl)spiro-[benzo[f]imidazo[1,5-α][1,4]diazepine-4,1′-cyclopropane]-3-carboxylate] | – | 12.6 | – | –
14 | CC1(C)N=C(c2ccccc2F)c2cc(Br)ccc2-n2cnc(C(=O)O)c21 [5a] | 5.39 | – | did not show strong GABAAR binding | effect on specific airway resistance (sRaw) (female A/J mice): little to no change of sRaw values
15 | O=C(O)c1ncn2c1C1(CC1)N=C(c1ccccc1F)c1cc(Br)ccc1-2 [5c, 8-Bromo-6-(2-fluorophenyl)-spiro[benzo[f]imidazo[1,5-α][1,4]diazepine-4,1′-cyclopropane]-3-carboxylic Acid] | 8.05 | – | – | relaxation of constricted airway smooth muscle ([2]; at 30 min): significant relaxation
16 | O=C(O)c1ncn2c1C1(CCC1)N=C(c1ccccc1F)c1cc(Br)ccc1-2 [5d] | 5.74 | – | – | relaxation of constricted airway smooth muscle ([2]; at 60 min): weak airway smooth muscle relaxation
17 | O=C(O)c1ncn2c1C1(CCCCC1)N=C(c1ccccc1F)c1cc(Br)ccc1-2 [5f] | – | – | – | relaxation of constricted airway smooth muscle ([2]; at 30 min): significant relaxation
18 | O=C(O)c1ncn2c1C1(CC1)N=C(c1ccccc1F)c1cc(Cl)ccc1-2 [5g] | – | – | weak GABAAR ligands | –
19 | C#Cc1ccc2c(c1)C(c1ccccc1F)=NC1(CC1)c1c(C(=O)O)ncn1-2 [5h, 8-Ethynyl-6-(2-fluorophenyl)spiro[benzo[f]-imidazo[1,5-α][1,4]diazepine-4,1′-cyclopropane]-3-carboxylic Acid] | 7.23 | – | – | relaxation of constricted airway smooth muscle ([2]; at 30 min): significant relaxation
20 | O=C(O)c1ncn2c1C1(CC1)N=C(c1ccccc1F)c1cc(C3CC3)ccc1-2 [5i] | 5.74 | – | weak GABAAR ligands | –
21 | O=C(O)c1ncn2c1C1(CC1)N=C(c1ccccc1F)c1ccccc1-2 [5j, 6-(2-Fluorophenyl)spiro[benzo[f]imidazo[1,5-α][1,4]diazepine-4,1′-cyclopropane]-3-carboxylic Acid] | 6.54 | – | – | relaxation of constricted airway smooth muscle ([2]; at 30 min): significant relaxation
22 | C[C@@H]1N=C(c2ccccc2F)c2cc(Br)ccc2-n2cnc(C(=O)O)c21 [MIDD0301S] | – | – | – | pIC50 (GABAAR [3]): 7.60
23 | C[C@H]1N=C(c2ccccc2F)c2cc(Br)ccc2-n2cnc(C(=O)O)c21 [MIDD0301] | – | – | – | remaining percentage of parent compound after 2 h, phase 1 [4]: 98 ± 4%; aqueous solubility (in words) ([5]; pH values between 3 and 6): significantly decreased; aqueous solubility (in words) ([5]; strong acidic, neutral and basic conditions): excellent solubility; sensorimotor inhibition on rotarod [6]: absence of sensorimotor inhibition; remaining percentage of parent compound after 2 h, phase 2 [7]: 73 ± 8%; remaining percentage of parent compound after 2 h, phase 2 [8]: 77 ± 3%; pIC50 (GABAAR [3]): 7.59; remaining percentage of parent compound after 2 h, phase 1 [9]: 110 ± 14%
24 | CN1C(=O)CN=C(c2ccccc2)c2cc(Cl)ccc21 [diazepam] | – | – | – | sensorimotor inhibition on rotarod [10]: rapid and significant loss of sensorimotor coordination

— paper PMC10833105 (Journal of medicinal chemistry, 2023)
